Measurements taken from patent US7358266B2, “Cyclopropyl and cyclobutyl epothilone analogs” (The Scripps Research Institute, priority 2001, dated 2008).
“Also recorded” adds a separate entry of the source.

What was measured:
[1] = tested on: ovarian carcinoma (1A9, PTX10, PTX22, A8) and epidermoid (KB-31, KB-8511) cancer cell lines; assay: Cytotoxicity, general statements over the cell line panel; type: cell-based, human; settings: for cytotoxic activity (in words): cell line not specified or all cell lines
Procedure: (§1) The biological activities of the synthesized epothilones were evaluated through cytotoxicity and tubulin polymerization assays. Cytotoxicity was first evaluated in a set of ovarian carcinoma cell lines, including a parental cell line (IA9) and three drug-resistant cell lines, namely the paclitaxel-resistant cell lines (Giannakakou, P.; et al. J. Biol. Chem. 1997, 272, 17118-17125) IA9/PTX10 and IA9/PTX22 and the epothilone-resistant cell line (Giannakakou, P.; et al. Proc. Natl. Acad. Sci. USA 2000, 97, 2904-2909) 1A9/A8. These resistant cell lines harbor distinct acquired P-tubulin mutations which affect drug-tubulin interaction and result in impaired taxane and epothilone-driven tubulin polymerization. Further cytotoxicity studies were undertaken using a set of human epidermoid cancer cell lines, including a parent cell line (KB-31), and a paclitaxel-resistant (due to P-gp overexpression) cell line (KB-8511).
(§2) IC50 values for each compound are given in nM and represent the mean of 3-5 independent experiments±standard error of the mean. Relative resistance (RR) is calculated as an IC50 value for each resistant subline divided by that for the parental cell line (1A9).^b Data from reference 3. CP=cyclopropyl, CB=cyclobutyl, na=not applicable, nd=not determined, py=5-methylpyridine side chain.
(§3) FIG. 16 is a table of tubulin polymerization potency^a and cytotoxicity^b of epothilones 1 through 12 and paclitaxel against human epidermoid cancer cell lines.^a% TP=percent tubulin polymerized after incubation of tubulin with a known concentration of compound (typically 3 μM).^b Cytotoxicity towards human cancer cell lines as IC50 values given in nM. KB-31: epidermoid Taxol®-sensitive, KB-8511: epidermoid Taxol®-resistant (due to P-gp over expression).

tubulin = assay: In vitro tubulin polymerization, fraction of tubulin polymerized (% TP); type: biochemical
Procedure: (§4) The cytotoxicity analysis was supplemented with data from two independent in vitro tubulin polymerization assays. In one assay, the fraction of tubulin polymerized into microtubules upon exposure to a given concentration of the respective compound was determined (see Table 2). In the other assay, tubulin polymerization kinetics upon exposure to the respective compounds was determined using purified rat brain tubulin through measurement of the absorbance at 350 nm (see FIG. 3). For this analysis, paclitaxel, epothilone A (1) and epothilone B (2) were used as controls while compounds 9, 11 and 12 were selected for in vitro analysis.
as §3

[2] = tested on: PTX10 (β270) paclitaxel-selected β-tubulin mutant clone of 1A9; assay: 72 h growth inhibition assay (SRB), paclitaxel-selected clone PTX10; type: cell-based, human
Procedure: as §1, §2

[3] = tested on: A8 (β274) epothilone-selected β-tubulin mutant clone of 1A9; assay: 72 h growth inhibition assay (SRB), epothilone-selected clone A8; type: cell-based, human
Procedure: as §1, §2

[4] = tested on: purified rat brain tubulin; assay: Tubulin polymerization kinetics, absorbance at 350 nm; type: biochemical; settings: for in vitro tubulin polymerization activity (in words) / maximum degree of tubulin polymerization compared with epothilone A (1): A350
Procedure: as §4

[5] = tested on: 1A9 human ovarian carcinoma cells; assay: 72 h growth inhibition assay (SRB), parental 1A9 cells; type: cell-based
Procedure: as §1, §2

[6] = tested on: KB-31 human epidermoid cancer cell line (Taxol-sensitive); assay: Cytotoxicity against human epidermoid cancer cell line KB-31; type: cell-based; settings: parental sensitive KB-31 cells; 3 compared with epothilone A (1)
Procedure: as §1, §3

[7] = tested on: PTX22 (β364) paclitaxel-selected β-tubulin mutant clone of 1A9; assay: 72 h growth inhibition assay (SRB), paclitaxel-selected clone PTX22; type: cell-based; settings: Homo sapiens, read-out: IC50 against PTX22
Procedure: as §1, §2

Row | Compound | cytotoxic activity (in words) [1] | tubulin polymerization promotion (in words) (tubulin) | activity against clone PTX10 versus parental line (in words) [2] | activity against clone A8 versus parental line (in words) [3] | time to A350=0.25 ([4]; polymerization kinetics) | inhibition of 1A9 cell growth (in words) ([5]; parental sensitive 1A9 cells, 3 compared with epothilone A (1)) | inhibition of KB-31 cell growth (in words) [6] | factor less active than 11 ([1]; cytotoxicity relative to analog 11) | in vitro tubulin polymerization activity (in words) [4] | maximum degree of tubulin polymerization compared with epothilone A (1) [4] | IC50 ([5]; Homo sapiens, Ovarian carcinoma cell, 1A9, 72 h, SRB, read-out: IC50 in the 1A9 human ovarian carcinoma cell line) | IC50 ([2]; Homo sapiens, 72 h, SRB, read-out: IC50 against PTX10) | IC50 [7] | IC50 ([3]; Homo sapiens, 72 h, SRB, read-out: IC50 against A8)
1 | 15S-cyclobutyl epothilone A [Compound 4] | retains good activity; also recorded: cytotoxic agents | potent tubulin polymerization promoters | lose some activity | lose some activity | – | – | – | – | – | – | – | – | – | –
2 | C/C(=C\c1csc(C)n1)[C@@H]1C[C@@H]2O[C@@H]2CCC[C@H](C)[C@H](O)[C@@H](C)C(=O)C(C)(C)[C@@H](O)CC(=O)O1 [Compound 1, epothilone A] | – | – | – | – | 2 min | – | – | – | – | – | – | – | – | –
3 | C/C(=C\c1csc(C)n1)[C@@H]1C[C@@H]2C[C@@H]2CCC[C@H](C)[C@H](O)[C@@H](C)C(=O)C(C)(C)[C@@H](O)CC(=O)O1 [Compound 3, cyclopropyl epothilone A] | cytotoxic agents | potent tubulin polymerization promoters | lose some activity | lose some activity | – | slightly more potently | slightly more potently | – | – | – | – | – | – | –
4 | C/C(=C\c1ccc(C)cn1)[C@@H]1C[C@@H]2C[C@@H]2CCC[C@H](C)[C@H](O)[C@@H](C)C(=O)C(C)(C)[C@@H](O)CC(=O)O1 [Compound 9] | highly active; also recorded: increased cytotoxic activity; also recorded: cytotoxic agents | potent tubulin polymerization promoters | lose some activity | lose some activity | – | – | – | three to five | good in vitro activity | smaller | – | – | – | –
5 | C/C(=C\c1ccc(C)cn1)[C@@H]1C[C@@H]2C[C@H]2CCC[C@H](C)[C@H](O)[C@@H](C)C(=O)C(C)(C)[C@@H](O)CC(=O)O1 [Compound 11, (12R, 13S, 15S)-cyclopropyl 5-methylpyridine epothilone A] | outstanding activity; also recorded: increased cytotoxic activity; also recorded: cytotoxic agents | potent tubulin polymerization promoters | lose some activity | lose some activity | – | – | – | – | good in vitro activity | smaller | 0.6 nM | < 10 nM | < 10 nM | < 10 nM
